Activity data for six molecules are collected here from ChEMBL document CHEMBL1122294, “Synthesis and biological activity of zoapatanol analogues” (J Med Chem, 1983).

Calls of active or inactive are those of the source. No cut-off for these calls is given here.

Holding throughout (type): functional, organism-based
Assay [1] deals with Cavia porcellus. Description: Effect in guinea pigs at a dose of 60 mg/kg of body weight; A- Partially active. More on the design: dose 60 mg/kg.
Assay [2] deals with Cavia porcellus. Description: Effect on the resorption of implantation sites in guinea pigs at 100 mg/kg administered intraperitoneally; E- Fully effective. Details: dose 100 mg/kg.
Assay [3] has as its system Cavia porcellus. Description: Effect in guinea pigs at a dose of 80 mg/kg of body weight; A- Partially active. More on the design: dose 80 mg/kg.
In assay [4] the test system is Cavia porcellus. Description: Pregnancy was determined in guinea pigs after sc administration of 50 or 75 mg per guinea pig on 22-24 postmating days (n=5); NA- No apparent effect.
Assay [5] deals with Cavia porcellus. Description: Pregnancy was determined in guinea pigs after sc administration of 40 or 50 mg per guinea pig on 12-14 postmating days (n=5); NA- No apparent effect.
The subject of assay [6] is Cavia porcellus. Description: Postcoital antifertility was determined in guinea pigs administered intraperitoneally as a single dose on day 22 postmating days; IA- Inactive.
In assay [7] the test system is Cavia porcellus. Description: Postcoital antifertility activity was determined in guinea pigs after injected for 3 days subcutaneously (12-14 postmating days); IA- Inactive.
Assay [8] has as its system Cavia porcellus. Description: Luteolytic activity was determined in guinea pigs after injected for 3 days subcutaneously (12-14 postmating days); IA- Inactive.
The test system of assay [9] is Cavia porcellus. Description: Postcoital antifertility was determined in guinea pigs after injected for 3 days subcutaneously (22-24 postmating days); IA- Inactive.
In assay [10] the test system is Cavia porcellus. Description: Luteolytic activity was determined in guinea pigs administered intraperitoneally as a single dose on day 22 postmating days; IA- Inactive.
Assay [11] deals with Cavia porcellus. Description: Luteolytic activity was determined in guinea pigs after injected for 3 days subcutaneously (22-24 postmating days); IA- Inactive.
The species entered for assay [12] is Cavia porcellus. Description: Pregnancy was determined in guinea pigs after a single dose of 24 mg per guinea pig (n=1 or 2); NE- No effect.
Assay [13] is filed under the species Cavia porcellus. Description: Pregnancy was determined in guinea pigs after a single dose of 40 mg per guinea pig (n=1 or 2); NE- No effect.

As to `CC(C)=CCC(=O)C(C)CCCC1(C)OC/C(=C/CO)CCC1O` (centres undefined), the Activity entry with Cavia porcellus [1] is “Weak activity”; in the assay on Cavia porcellus [2], “Fully effective”; in the assay with Cavia porcellus [3], “Weak activity”.
Consider `COC(=O)C(C)CCC[C@]1(C)COC(CO)CO1` (some centres undefined), for which the result with Cavia porcellus [4], with Cavia porcellus [5], with Cavia porcellus [6], in the assay on Cavia porcellus [7], with Cavia porcellus [8] and in the assay on Cavia porcellus [9] was inactive. The outcome with Cavia porcellus [10] and with Cavia porcellus [11] was inactive.
As for `CC(C)=CCC(=O)C(C)CCCC1(C)COC(CO)CO1` (centres undefined), the outcome in the assay with Cavia porcellus [6], with Cavia porcellus [7], in the assay on Cavia porcellus [8], in the assay on Cavia porcellus [9], with Cavia porcellus [10] and with Cavia porcellus [11] was inactive.
Turning to `CC(C)=CCC(=O)C(C)CCCC1(C)COC(CC(=O)O)CO1` (centres undefined), the result with Cavia porcellus [6], with Cavia porcellus [7], in the assay on Cavia porcellus [8], in the assay with Cavia porcellus [9], in the assay with Cavia porcellus [10] and with Cavia porcellus [11] was inactive.
With `CC(C)/C=C/C(=O)C(C)CCCC1(C)COC(CC(=O)O)CO1` (centres undefined), the outcome in the assay on Cavia porcellus [6], in the assay listed under Cavia porcellus [12], in the assay with Cavia porcellus [7], in the assay on Cavia porcellus [8], in the assay on Cavia porcellus [9] and in the assay on Cavia porcellus [10] was inactive. The outcome in the assay with Cavia porcellus [11] and in the assay listed under Cavia porcellus [13] was inactive.
In the case of `COC(=O)C(C)CCC[C@@]1(C)COC(CO)CO1` (some centres undefined), the result in the assay with Cavia porcellus [4], in the assay on Cavia porcellus [5], with Cavia porcellus [6], in the assay with Cavia porcellus [7], with Cavia porcellus [8] and in the assay on Cavia porcellus [9] was inactive. Besides, the outcome in the assay on Cavia porcellus [10] and in the assay with Cavia porcellus [11] was inactive.
